The source of these data is patent US7135279B2 (priority 1992, dated 2006).

For assay [1] the following is noted: control of morning sickness during pregnancy; cited from earlier work.
For assay [2], the system named is D-[Aba^67.95 (CO-S)^51–52]2 HIV-1 PR. Kind of assay: Fluorogenic assay of inhibitors against the D-ligation analog. Format: biochemical. The following applies: corresponding chiral substrate, 5×1C50 concentration of inhibitor. Here is the method: (§1) The D- and L-enzymes were separately assayed by the fluorogenic assay method using the corresponding chiral substrate, in the presence of 5×1C50 concentration of inhibitor. The fluorogenic assays were performed with 15 ul aliquots (corresponding to […] protein) of each enzyme enantiomer in 100 millimolar MES buffer pH 6.5 added to a solution of […] D- or L-fluorogenic substrate in the MES buffer. The substrate sequence was 2-aminobenzoyl-Thr-Ile-Nle-Phe(p-NO2)-Gln-Arg amide (SEQ ID NO 2): it was synthesized with either D- or L-amino acid derivatives to provide the appropriate enantiomeric forms. The inhibitor Evans Blue is a non-peptide, achiral mixed competitive-uncompetitive inhibitor of the HIV-1 PR enzyme.

The target in assay [3] is T1, L-[Aba^67.95 (CO-S)^51–52]2 HIV-1 PR (Human immunodeficiency virus type 1 group M subtype B, UniProt P03369, C557A/C585A).
T1 construct: to form the ligated 99-residue D- and L-[(NHCH2COSCH2 CO)^51-52]; HIV-1 PR products; made in house; host or cells: total chemical synthesis: solid-phase segments 1-51 and 53-99 joined by chemical ligation
Description: Fluorogenic assay of inhibitors against the L-ligation analog. The following applies: corresponding chiral substrate, 5×1C50 concentration of inhibitor. Format: biochemical. How it is done:
as §1

Turning to `O=C1CC[C@@H](N2C(=O)c3ccccc3C2=O)C(=O)N1` (single isomer, unassigned) [D-enantiomer of thalidomide], the sedative effect result in assay [1] was “safe and effective sedative”. For the compound “Ac-Thr-Ile-Nle-psi[CH2NH]-Nle-Gln-Arg.amide [D-MVT101]”, in assay [2], the “inhibition of D-[Aba^67.95 (CO-S)^51–52]2 HIV-1 PR” value was “inhibits”. Also, the “inhibition of L-[Aba^67.95 (CO-S)^51–52]2 HIV-1 PR” value in assay [3] is “no effect”. With “Ac-Thr-Ile-Nle-psi[CH2NH]-Nle-Gln-Arg.amide [L-MVT101]”, the “inhibition of D-[Aba^67.95 (CO-S)^51–52]2 HIV-1 PR” value in assay [2] is given as “no effect”. Also, in assay [3], the “inhibition of L-[Aba^67.95 (CO-S)^51–52]2 HIV-1 PR” value is “inhibits”.
